1 compound from patent publication US20190308987A1, “DUAL MODULATORS OF BOTH MU AND KAPPA OPIOID RECEPTORS” (priority 2016, published 2019) can be followed below.

Molecules are shown by their SMILES. Where “and” joins values, the source holds several entries; their conditions need not be identical. Equal values may be shown once.

Test [1] deals with T1, kappa opioid receptor (KOR) (Homo sapiens, UniProt P41145).
T1 construct: expressed in transfected cells; host or cells: CHO cells (membranes)
Kind of test: Competitive radioligand binding, KOR ([3H]nor-BNI). The method, then:
(§1) The details of the Radioligand Binding and Functional Studies that were used were described previously.^19 Chinese hamster ovarian (CHO) cell lines were used as monoclonal opioid receptor expressing cells. The μ, δ, and κ opioid receptors were labeled with [^3H]naloxone, ^3H-naltrindole ([^3H]NTI) and ^3H-nor-Binaltorphimine ([^3H]norBNI). The opioid receptor expressing cell membranes were incubated with the radioligands at different concentrations of the drug under investigation at 30° C. for 1 h. With the absence and presence of 10 μM naltrexone, specific binding was got as the difference in binding obtained. The specific binding of the drugs to the radioligand was calculated from data using linear regression analysis of Hill plots.
(§2) All samples were assayed in triplicate and repeated at least twice for a total of 3 independent determinations. Results were reported as mean values±SEM. Concentration-effect curves were fit by nonlinear regression to a one-site binding model, using GraphPad Prism software, to determine EC50 and Emax values. IC50 values were obtained from Hill plots and analyzed by linear regression using Microsoft Excel software. Binding Ki values were determined from IC50 values using the Cheng-Prusoff equation: Ki=IC50/l+([L]/KD), where [L] is the concentration of […] and KD is the KD of the radioligand.

Test [2] has as its target T2, KOR (Homo sapiens, UniProt P41145).
T2 construct: expressed in transfected cells; host or cells: CHO cells (membranes)
Kind of test: [35S]GTPγS-binding assay, KOR-expressing CHO cell membranes. In kind it is biochemical. On the procedure:
(§3) [^35S]-GTPγS-Binding Assays using DOR- or KOR-Expressing CHO Cell Lines: Cell membranes (10 μg protein) were incubated with 10 μM GDP and 0.1 nM [^35S]-GTPγS in assay buffer in the presence and absence of varying concentrations of BNAP, 3 μM SNC80 (standard full agonist at DOR) or 3 μM U50,488H (standard full agonist at KOR) for 90 min at 30° C. Nonspecific binding was determined with 10 μM unlabeled GTPγS. The reaction was terminated and bound radioactivity determined as described above and previously.^9
as §2
In general terms: GTPγS is a poorly hydrolysed GTP analogue; its binding reports G protein activation.

In test [3] the target is T3, DOR (Homo sapiens, UniProt P41143).
T3 construct: expressed in transfected cells; host or cells: CHO cells (membranes)
Kind of test: [35S]GTPγS-binding assay, DOR-expressing CHO cell membranes. In kind it is biochemical. The method, then: as §3, §2

The target in test [4] is MOR (Mus musculus, UniProt P42866). Kind of test: [35S]GTPγS-binding assay, low MOR-expressing CHO cell line membranes. In kind it is biochemical. The arrangement: expressed in transfected cells; host or cells: CHO cells (membranes). On the procedure: [^35S]GTPγS-binding Assays using a Low MOR-expressing CHO Cell Line: Cell membranes were incubated with varying concentrations of BNAP or 3 μM DAMGO (standard full agonist at MOR) in the presence of 10 μM GDP and 0.1 nM [^35S]GTPγS in assay buffer (50 mM Tris-HCl, pH 7.4, 3 mM MgCl2, 0.2 mM EGTA and 100 mM NaCl) for 90 min at 30° C. Nonspecific binding was determined using 10 μM unlabeled GTPγS. The incubation was terminated by rapid vacuum filtration through GF/B glass fiber filters. Bound radioactivity was determined by liquid scintillation spectrophotometry. Additional methodological details of the assay were described previously.^9
as §2

Test [5] addresses T4, mu opioid receptor (MOR) (Mus musculus, UniProt P42866).
T4 construct: expressed in transfected cells; host or cells: CHO cells (membranes)
Briefly: Competitive radioligand binding, MOR ([3H]naloxone). The conditions noted are these: mean ± SEM of three experiments. The method, then:
as §1, §2

The subject of test [6] is morphine antinociception. Briefly: Warm water tail immersion (tail flick) test. In kind it is in vivo, Swiss Webster mice. The method, then: Male Swiss Webster mice (Harlan Laboratories, Indianapolis, Ind.) weighing 25-30 g were housed 5 to a cage in animal care quarters and maintained at […] on a 12 h light-dark cycle. Food and water were available ad libitum. The mice were brought to a test room (22±2° C., 12 h light-dark cycle), marked for identification and allowed 18 h to recover from transport and handling. Protocols and procedures were approved by the Institutional Animal Care and Use Committee (IACUC) at Virginia Commonwealth University Medical Center and comply with the recommendations of the IASP (International Association for the Study of Pain).
The warm water tail-immersion test was performed according to previously described methods using a water bath with the temperature maintained at 56±0.1° C.^20 Briefly, before giving the mice injections, a baseline (control) latency was determined. Only mice with a control reaction time of 2 to 4 s were used. The average baseline latency for these experiments was 3.0±0.1 s. The test latency after drug treatment was assessed at the appropriate time, and a 10 s maximal cutoff time was imposed to prevent tissue damage. Antinociception was quantified according to established procedures as the percentage of maximum possible effect (% MPE), which was calculated as follows: % MPE=[(test latency−control latency)/(10−control latency)]×100.^21 Percentage MPE was calculated for each mouse, using at least six mice per group.
Intracerebroventricular (ICV) injections were performed as described previously.^22 Mice were anesthetized with 2.5% isoflurane and a horizontal incision was made in the scalp. A needle was inserted to a depth of 3 mm into the lateral ventrical (2 mm rostral and 2 mm lateral at a 45° angle from the bregma). At intervals, 5 μL injections of drug or vehicle were made using this guide insertion to the same depth using a needle with a guard in nonanesthetized animals.^22, 23 Animals underwent the anesthetized surgery in the morning of the experiment and were then injected with drug at intervals indicated in the text without additional anesthesia. Immediately after testing, the animals were euthanized to minimize any type of distress, according to IACUC guidelines.

Test [7] has as its system intestinal transit. Kind of test: Charcoal meal test for gastrointestinal transit. The format is in vivo, mice. On the procedure:
Forty-eight hours before testing, mice were placed in cages with raised mesh wire to suspend them above their bedding and prevent ingestion of feces or bedding. The animals were habituated for 24 h in the presence of food and water and then fasted for 24 h with free access to water as previously reported.^24 This time frame was chosen to deplete the intestine and colon of any feces. To maintain caloric intake and to avoid hypoglycemia, mice had access to a sugar water solution consisting of a final concentration of 5% dextrose for the first 8 h of the fasting period. […] At 30 min after the administration of the charcoal meal, the mice were euthanized by cervical dislocation, and the small intestine from the jejunum to the cecum was dissected and placed in cold saline to stop peristalsis. The distance traveled by the leading edge of the charcoal meal was measured relative to the total length of the small intestine, and the percentage of intestinal transit for each animal was calculated as percentage transit (charcoal distance)/(small intestinal length)×100. This is referred to as intestinal transit in the text.

On to `O=C(N[C@@H]1CC[C@@]2(O)[C@H]3Cc4ccc(O)c5c4[C@@]2(CCN3CC2CC2)C1O5)c1cc[n+](Cc2ccccc2)cc1` (stereo partly drawn) [BNAP], for which the Ki (in general, a dissociation constant, usually derived from enzyme kinetics or from competition with a known ligand) is 3.46 ± 0.05 nM in test [1] (KOR, [3H]nor-BNI, read-out: Ki (nM) ± SEM) and 0.76 ± 0.09 nM in test [5]. In test [1] (ratio of Ki KOR/MOR), the “Selectivity (κ/μ)” value is listed as 4.6. In addition, the EC50 (in general, the concentration that produces a half-maximal response) in test [2] (35S-GTP[γS]) was 2.9 ± 1.1 nM; in test [3] (35S-GTP[γS]), 108 ± 69 nM; in test [4] (EC50 (nM), 35S-GTP[γS]), 4.84 nM and 4.8 nM. Besides, the “% max of agonist” value in test [2] (Emax relative to full agonist U50,488H) turned out to be 45.9±1.7%; in test [3] (Emax relative to full agonist SNC80), 9.2±2.2%; in test [4] (Emax relative to full agonist DAMGO), 14.6±0.9%. In addition, the “antinociception of compound alone” value in test [6] (1.0 μg/5 μL ICV, compared to morphine alone) is listed as “did not produce significant antinociception”. Besides, the “antagonism of morphine antinociception” value in test [6] (10 mg/kg s.c., any morphine dose tested) is on record as “did not significantly antagonize morphine antinociception”. For the same compound, in test [6] (10 mg/kg s.c., warm water tail flick, mice), the “antinociceptive effect of compound alone” value is recorded as “did not produce significant antinociceptive effects”. In addition, in test [6] (ICV, dose dependent reversal), the “dose giving complete reversal of morphine antinociception” value is 0.3 μg/5 μL. Moreover, in test [7] (charcoal gavage, compound alone), the “reduction of intestinal motility” value turned out to be 1.5 fold. For the same compound, in test [7] (mice treated acutely with morphine), the “reversal of morphine induced inhibition of intestinal motility” value is given as “unable to reverse morphine induced inhibition of intestinal motility”.
